Experimental data taken from ChEMBL document CHEMBL1201862, “PubChem BioAssay data set” (2004).
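In this assay, cells in 96-well plates receive the compound at five concentrations for 48 hours. Endpoints are linearly interpolated between the surrounding concentrations. GI50 is the concentration that inhibits growth by half.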 Activity calls are given as the source filed them. No stated cut-off is given here; in the data, active = GI50 up to about 1.1 µM and inactive = higher.

How the values were obtained:
Assay in all cases: NCI tumour cell line growth inhibition, 48 h
[1] = tested on: NCI-H522
[2] = tested on: IGROV-1
[3] = tested on: SR
[4] = tested on: M14
[5] = tested on: SNB-19
[6] = tested on: MOLT-4
[7] = tested on: OVCAR-3
[8] = tested on: OVCAR-5
[9] = tested on: SK-MEL-2
[10] = tested on: HL-60
[11] = tested on: ACHN
[12] = tested on: NCI-H460
[13] = tested on: SW-620
[14] = tested on: RXF 393
[15] = tested on: SK-OV-3
[16] = tested on: HCT-15
[17] = tested on: COLO 205

SMILES | GI50 [1] | GI50 [2] | GI50 [3] | GI50 [4] | GI50 [5] | GI50 [6] | GI50 [7] | GI50 [8] | GI50 [9] | GI50 [10] | GI50 [11] | GI50 [12] | GI50 [13] | GI50 [14] | GI50 [15] | GI50 [16] | GI50 [17]
Cc1noc(NC(=O)Nc2ccccc2F)c1C#N | 7.93 µM (inactive) | > 91.6 µM (inactive) | 21.4 µM (inactive) | > 24.4 µM (inactive) | > 35 µM (inactive) | 48.9 µM (inactive) | 64.3 µM (inactive) | > 28.4 µM (inactive) | > 39.8 µM (inactive) | 84.5 µM (inactive) | 22.2 µM (inactive) | 6.55 µM (inactive) | > 100 µM (inactive) | > 66.8 µM (inactive) | > 100 µM (inactive) | 55.3 µM | > 100 µM (inactive)
COC(=O)c1cc(C(=O)OC)c(CC(=O)C(=O)NC2C3CC4CC(C3)CC2C4)nc1CC(=O)C(=O)NC1C2CC3CC(C2)CC1C3 (stereo not drawn) | > 100 µM (inactive) | > 100 µM (inactive) | 8.69 µM (inactive) | > 100 µM (inactive) | > 100 µM (inactive) | 37.3 µM (inactive) | > 100 µM (inactive) | > 100 µM (inactive) | > 100 µM (inactive) | > 100 µM (inactive) | > 100 µM (inactive) | > 100 µM (inactive) | > 100 µM (inactive) | > 100 µM (inactive) | > 100 µM (inactive) | > 100 µM | > 100 µM (inactive)
O=C1c2ccccc2N2OC3(N4CCOCC4)CCCC3C12c1ccccc1 (stereo not drawn) | 86.1 µM (inactive) | > 100 µM (inactive) | > 100 µM (inactive) | > 100 µM (inactive) | > 100 µM (inactive) | > 100 µM (inactive) | – | – | – | 77.1 µM (inactive) | > 100 µM (inactive) | – | > 100 µM (inactive) | 49.2 µM (inactive) | > 100 µM (inactive) | > 100 µM | > 100 µM (inactive)
Clc1cccc(C2SCc3nc4ccccc4n32)c1 (stereo not drawn) | 10.4 µM (inactive) | 22.3 µM (inactive) | 16.3 µM (inactive) | 19.7 µM (inactive) | – | 23.1 µM (inactive) | 14.4 µM (inactive) | 15 µM (inactive) | – | 7.57 µM (inactive) | 18.4 µM (inactive) | 27.8 µM (inactive) | 32.9 µM (inactive) | 15 µM (inactive) | 21.6 µM (inactive) | 16.8 µM | 4.79 µM (inactive)
COC1(OC)CC2CCCCC2=C(C)N1S(=O)(=O)c1ccccc1 (stereo not drawn) | > 100 µM (inactive) | > 100 µM (inactive) | > 100 µM (inactive) | > 100 µM (inactive) | > 100 µM (inactive) | > 10 µM (inactive) | > 100 µM (inactive) | > 100 µM (inactive) | > 100 µM (inactive) | > 100 µM (inactive) | > 100 µM (inactive) | > 100 µM (inactive) | > 100 µM (inactive) | > 100 µM (inactive) | > 100 µM (inactive) | > 100 µM | > 100 µM (inactive)
[N-]=[N+]=Nc1nnc(CCCCc2nnc(N=[N+]=[N-])o2)o1 | > 100 µM (inactive) | – | – | > 100 µM (inactive) | > 100 µM (inactive) | > 100 µM (inactive) | > 100 µM (inactive) | > 100 µM (inactive) | > 100 µM (inactive) | – | > 100 µM (inactive) | > 100 µM (inactive) | > 100 µM (inactive) | > 100 µM (inactive) | > 100 µM (inactive) | > 100 µM | > 100 µM (inactive)
COC(=O)/C=C(C)/C=C/C1OC(C)OCC1O (stereo not drawn) | > 100 µM (inactive) | > 100 µM (inactive) | – | > 100 µM (inactive) | > 100 µM (inactive) | > 100 µM (inactive) | > 100 µM (inactive) | > 100 µM (inactive) | – | > 100 µM (inactive) | > 100 µM (inactive) | > 100 µM (inactive) | > 100 µM (inactive) | – | > 100 µM (inactive) | > 100 µM | > 100 µM (inactive)
COC(=O)C(=O)C(C(=O)C(=O)Nc1cc([N+](=O)[O-])ccc1[N+](=O)[O-])c1nc2ccc(C(=O)c3ccccc3)cc2nc1O (stereo not drawn) | 26.7 µM (inactive) | 33.6 µM (inactive) | 21.7 µM (inactive) | 33.1 µM (inactive) | 50.4 µM (inactive) | 18.1 µM (inactive) | 39.2 µM (inactive) | 20.7 µM (inactive) | 37.2 µM (inactive) | – | 34.8 µM (inactive) | 35.4 µM (inactive) | 28.4 µM (inactive) | – | 34.2 µM (inactive) | 56.5 µM | 32.6 µM (inactive)
Nc1nc2c(ncn2Cc2ccccc2CCO)c(=O)[nH]1 | > 100 µM (inactive) | > 100 µM (inactive) | – | > 100 µM (inactive) | > 100 µM (inactive) | > 100 µM (inactive) | > 100 µM (inactive) | > 100 µM (inactive) | > 100 µM (inactive) | > 100 µM (inactive) | > 100 µM (inactive) | > 100 µM (inactive) | > 100 µM (inactive) | > 100 µM (inactive) | > 100 µM (inactive) | > 100 µM | > 100 µM (inactive)
